The target of test [1] is T1, Recombinant STAT3 protein (STAT3 (G127-I722)) (Homo sapiens, UniProt P40763).
T1 construct: Recombinant STAT3 protein (STAT3 (G127-I722))
Nature of the test: STAT3 Fluorescence Polarization (FP) Assay. The format is binding. Conditions: STAT3 (G127-I722) 25 nM, probe 5-FAM-GpYLPQTV-NH2 2 nM, 45-minute incubation; read-out: STAT3 (FP assay IC50 class). The method in brief:
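Displacement of a fluorescent phosphotyrosine peptide (5-FAM-GpYLPQTV-NH2, 2 nM) from 25 nM recombinant STAT3 G127-I722 was monitored by FP after 45 min at room temperature.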

Test [2] has as its target T2, Recombinant STAT6 protein (STAT6 (W123-T658)) (Homo sapiens, UniProt P42226).
T2 construct: Recombinant STAT6 protein (STAT6 (W123-T658))
T2 sequence (P42226 123-658): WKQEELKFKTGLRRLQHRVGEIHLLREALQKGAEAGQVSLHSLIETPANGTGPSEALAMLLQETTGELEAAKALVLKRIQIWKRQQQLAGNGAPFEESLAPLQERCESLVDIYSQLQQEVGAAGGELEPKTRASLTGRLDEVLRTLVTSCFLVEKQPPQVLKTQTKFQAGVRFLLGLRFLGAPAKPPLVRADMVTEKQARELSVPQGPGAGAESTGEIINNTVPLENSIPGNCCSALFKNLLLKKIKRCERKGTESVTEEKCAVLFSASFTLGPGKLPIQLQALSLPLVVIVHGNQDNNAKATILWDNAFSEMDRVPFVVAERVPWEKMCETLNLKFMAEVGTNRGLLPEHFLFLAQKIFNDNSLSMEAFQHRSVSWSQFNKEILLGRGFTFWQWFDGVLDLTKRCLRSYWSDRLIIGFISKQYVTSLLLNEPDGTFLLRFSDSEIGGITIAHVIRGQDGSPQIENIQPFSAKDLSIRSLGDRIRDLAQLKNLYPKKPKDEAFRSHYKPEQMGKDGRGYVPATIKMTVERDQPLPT
Nature of the test: STAT6 Fluorescence Polarization (FP) Assay. The test is classed as binding. The following applies: STAT6 (W123-T658) 250 nM, probe 5-FAM-Ap[…]-NH2 2 nM, 45-minute incubation; read-out: STAT6 (FP assay IC50 class). The method in brief:
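Serially diluted compounds received a premix of STAT6 (W123-T658, 250 nM) and 5-FAM peptide probe (2 nM) in pH 7.4 HEPES buffer containing DTT and Tween 20. Following 45 min at room temperature, FP was recorded. IC50s were fitted by nonlinear regression; values are binned A (≤300 nM), B (>300-3000 nM), C (>3-30 μM), D (>30 μM).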

This note sets out measurements from patent US20250215029A1 (Recludix Pharma, Inc., priority 2022, published 2025).

Where only a bound is given, the exact number is not on record here.

T1 sequence (P40763 127-722): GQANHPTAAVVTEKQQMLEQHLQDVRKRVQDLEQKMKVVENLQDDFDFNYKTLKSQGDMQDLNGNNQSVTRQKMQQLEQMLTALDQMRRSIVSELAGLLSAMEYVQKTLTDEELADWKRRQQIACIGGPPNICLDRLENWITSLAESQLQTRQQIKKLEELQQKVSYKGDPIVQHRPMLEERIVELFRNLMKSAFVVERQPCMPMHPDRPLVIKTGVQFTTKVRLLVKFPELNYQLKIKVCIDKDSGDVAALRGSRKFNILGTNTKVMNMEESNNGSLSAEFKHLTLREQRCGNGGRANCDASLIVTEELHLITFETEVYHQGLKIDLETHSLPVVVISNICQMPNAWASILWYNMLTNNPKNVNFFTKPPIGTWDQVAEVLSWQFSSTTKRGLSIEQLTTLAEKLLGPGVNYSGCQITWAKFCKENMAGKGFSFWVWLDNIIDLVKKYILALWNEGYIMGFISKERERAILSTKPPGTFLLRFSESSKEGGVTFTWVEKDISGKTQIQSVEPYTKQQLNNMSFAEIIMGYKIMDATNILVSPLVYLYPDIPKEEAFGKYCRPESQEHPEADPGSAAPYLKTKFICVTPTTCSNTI

Turning to `CC(C)[C@H]1CC[C@H](NC(=O)c2cc3cc(C(F)P(=O)(O)O)ccc3s2)C(=O)N2[C@H](CC[C@H]2C(=O)N2C[C@@H](C#N)[C@H](c3ccccc3)C2)C1` (single isomer, unassigned) [Compound 238], the IC50 (commonly the midpoint of a concentration-inhibition curve) in test [1] was 1 to 10 µM; in test [2], at most 0.3 µM.
For `CCC[C@@H]1CC[C@H](NC(=O)c2cc3cc(C(F)P(=O)(O)O)ccc3s2)C(=O)N2[C@H](CC[C@H]2C(=O)N2C[C@@H](C#N)[C@H](c3ccccc3)C2)C1` (single isomer, unassigned) [Compound 239] the same measures were 1 to 10 µM and at most 0.3 µM.
For `CCC[C@H]1CC[C@H](NC(=O)c2cc3cc(C(F)P(=O)(O)O)ccc3s2)C(=O)N2[C@H](CC[C@H]2C(=O)N2C[C@@H](C#N)[C@H](c3ccccc3)C2)C1` (single isomer, unassigned) [Compound 240] the same measures were 1 to 10 µM and at most 0.3 µM.
On the same counts, the results for `O=C(N[C@H]1CCC[C@H]2CC[C@@H](C(=O)N3CC(c4cnccc4F)C3)N2C1=O)c1cc2cc([C@@H](F)P(=O)(O)O)ccc2s1` (single isomer, unassigned) [Compound 599] are below 0.1 µM and 0.3 to 3 µM.
As for `O=C(N[C@H]1CCC[C@H]2CC[C@@H](C(=O)N3CC(c4cnccc4F)C3)N2C1=O)c1cc2cc([C@H](F)P(=O)(O)O)ccc2s1` (single isomer, unassigned) [Compound 600], the results for the IC50 in test [1] and in test [2] were below 0.1 µM and 0.3 to 3 µM, respectively.
For `CN(C)c1ccncc1C1CN(C(=O)[C@@H]2CC[C@@H]3CCC[C@H](NC(=O)c4cc5cc([C@@H](F)P(=O)(O)O)ccc5s4)C(=O)N32)C1` (single isomer, unassigned) [Compound 631] the same measures were below 0.1 µM and 3 to 30 µM.
For `CN(C)c1ccncc1C1CN(C(=O)[C@@H]2CC[C@@H]3CCC[C@H](NC(=O)c4cc5cc([C@H](F)P(=O)(O)O)ccc5s4)C(=O)N32)C1` (single isomer, unassigned) [Compound 634] the same measures were below 0.1 µM and 0.3 to 3 µM.
On the same counts, the results for `Cc1ccncc1C1CN(C(=O)[C@@H]2CC[C@@H]3CCC[C@H](NC(=O)c4cc5cc([C@H](F)P(=O)(O)O)ccc5s4)C(=O)N32)C1` (single isomer, unassigned) [Compound 636] are below 0.1 µM and 3 to 30 µM.
`CN(C)c1ncncc1C1CN(C(=O)[C@@H]2CC[C@@H]3CCC[C@H](NC(=O)c4cc5cc([C@H](F)P(=O)(O)O)ccc5s4)C(=O)N32)C1` (single isomer, unassigned) [Compound 665]: the IC50 is below 0.1 µM in test [1] and 3 to 30 µM in test [2].
On the same counts, the results for `CN(C)c1ncncc1C1CN(C(=O)[C@@H]2CC[C@@H]3CCC[C@H](NC(=O)c4cc5cc([C@@H](F)P(=O)(O)O)ccc5s4)C(=O)N32)C1` (single isomer, unassigned) [Compound 667] are below 0.1 µM and 3 to 30 µM.
As for `COC[C@@H]1CCN1c1ncncc1C1CN(C(=O)[C@@H]2CC[C@@H]3CCC[C@H](NC(=O)c4cc5cc([C@@H](F)P(=O)(O)O)ccc5s4)C(=O)N32)C1` (single isomer, unassigned) [Compound 669], the IC50 in test [1] is below 0.1 µM; in test [2], 3 to 30 µM.
On the same counts, the results for `Cc1nnc([C@H]2[C@H](c3ccccc3)CN2C(=O)[C@@H]2CC[C@@H]3CCC[C@H](NC(=O)c4cc5cc(C(F)P(=O)(O)O)ccc5s4)C(=O)N32)o1` (single isomer, unassigned) [Compound 674] are 0.1 to 1 µM and 3 to 30 µM.
On the same counts, the results for `C[C@H]1C[C@H]2CC[C@@H](C(=O)N3CC(c4cncnc4N4CCC4)C3)N2C(=O)[C@@H](NC(=O)c2cc3cc([C@H](F)P(=O)(O)O)ccc3s2)C1` (single isomer, unassigned) [Compound 676] are below 0.1 µM and 3 to 30 µM.
On the same counts, the results for `C[C@H]1C[C@H]2CC[C@@H](C(=O)N3CC(c4cncnc4N4CCC4)C3)N2C(=O)[C@@H](NC(=O)c2cc3cc([C@@H](F)P(=O)(O)O)ccc3s2)C1` (single isomer, unassigned) [Compound 677] are below 0.1 µM and 3 to 30 µM.
For the molecule `CN(C)c1c(F)cncc1C1CN(C(=O)[C@@H]2CC[C@@H]3CCC[C@H](NC(=O)c4cc5cc([C@H](F)P(=O)(O)O)ccc5s4)C(=O)N32)C1` (single isomer, unassigned) [Compound 685], the IC50 in test [1] was below 0.1 µM; in test [2] it was 3 to 30 µM.
For `O=C(N[C@H]1CCC[C@H]2CC[C@@H](C(=O)N3CC(c4cncnc4N4CCC4)C3)N2C1=O)c1cc2cc([C@H](F)P(=O)(O)O)ccc2s1` (single isomer, unassigned) [Compound 689], the values for the IC50 in test [1] and in test [2] were below 0.1 µM and 0.3 to 3 µM, respectively.
For `O=C(N[C@H]1CCC[C@H]2CC[C@@H](C(=O)N3CC(c4cncnc4N4CCC4)C3)N2C1=O)c1cc2cc([C@@H](F)P(=O)(O)O)ccc2s1` (single isomer, unassigned) [Compound 690] the same measures were below 0.1 µM and 3 to 30 µM.
On the same counts, the results for `CN(C)C(=O)c1ccncc1C1CN(C(=O)[C@@H]2CC[C@@H]3CCC[C@H](NC(=O)c4cc5cc([C@@H](F)P(=O)(O)O)ccc5s4)C(=O)N32)C1` (single isomer, unassigned) [Compound 696] are 1 to 10 µM and 3 to 30 µM.
On the same counts, the results for `COc1c(C2CN(C(=O)[C@@H]3CC[C@@H]4CCC[C@H](NC(=O)c5cc6cc([C@@H](F)P(=O)(O)O)ccc6s5)C(=O)N43)C2)ccnc1Cl` (single isomer, unassigned) [Compound 698] are 0.1 to 1 µM and 3 to 30 µM.
On to `COc1nccc(C2CN(C(=O)[C@@H]3CC[C@@H]4CCC[C@H](NC(=O)c5cc6cc([C@@H](F)P(=O)(O)O)ccc6s5)C(=O)N43)C2)c1F` (single isomer, unassigned) [Compound 700], for which the IC50 in test [1] is 0.1 to 1 µM; in test [2], 3 to 30 µM.
On the same counts, the results for `CN(C)c1cc(C2CN(C(=O)[C@@H]3CC[C@@H]4CCC[C@H](NC(=O)c5cc6cc([C@@H](F)P(=O)(O)O)ccc6s5)C(=O)N43)C2)ccn1` (single isomer, unassigned) [Compound 701] are 0.1 to 1 µM and 3 to 30 µM.
On the same counts, the results for `COc1cc(C2CN(C(=O)[C@@H]3CC[C@@H]4CCC[C@H](NC(=O)c5cc6cc([C@@H](F)P(=O)(O)O)ccc6s5)C(=O)N43)C2)ccn1` (single isomer, unassigned) [Compound 702] are 0.1 to 1 µM and 3 to 30 µM.
For `CNc1c(F)cncc1C1CN(C(=O)[C@@H]2CC[C@@H]3CCC[C@H](NC(=O)c4cc5cc([C@H](F)P(=O)(O)O)ccc5s4)C(=O)N32)C1` (single isomer, unassigned) [Compound 703] the same measures were below 0.1 µM and 3 to 30 µM.
Take `Cn1ccc(C2CN(C(=O)[C@@H]3CC[C@@H]4CCC[C@H](NC(=O)c5cc6cc([C@@H](F)P(=O)(O)O)ccc6s5)C(=O)N43)C2)cc1=O` (single isomer, unassigned) [Compound 708]: the values for the IC50 in test [1] and in test [2] were 0.1 to 1 µM and 3 to 30 µM, respectively.
On the same counts, the results for `CCOc1cc(C2CN(C(=O)[C@@H]3CC[C@@H]4CCC[C@H](NC(=O)c5cc6cc([C@@H](F)P(=O)(O)O)ccc6s5)C(=O)N43)C2)ccn1` (single isomer, unassigned) [Compound 709] are 0.1 to 1 µM and 3 to 30 µM.
On to `CN(C)c1nccc(C2CN(C(=O)[C@@H]3CC[C@@H]4CCC[C@H](NC(=O)c5cc6cc([C@@H](F)P(=O)(O)O)ccc6s5)C(=O)N43)C2)n1` (single isomer, unassigned) [Compound 710], for which the IC50 in test [1] is 0.1 to 1 µM; in test [2], 3 to 30 µM.
On the same counts, the results for `O=C(N[C@H]1CCC[C@H]2CC[C@@H](C(=O)N3CC(c4ccnc(N5CCOCC5)c4)C3)N2C1=O)c1cc2cc([C@@H](F)P(=O)(O)O)ccc2s1` (single isomer, unassigned) [Compound 712] are 1 to 10 µM and 3 to 30 µM.
For `CN(C)c1cncc(C2CN(C(=O)[C@@H]3CC[C@@H]4CCC[C@H](NC(=O)c5cc6cc([C@H](F)P(=O)(O)O)ccc6s5)C(=O)N43)C2)c1Cl` (single isomer, unassigned) [Compound 713] the same measures were 0.1 to 1 µM and 3 to 30 µM.
Regarding `C[C@@H]1[C@@H](c2cccnc2)CN1C(=O)[C@@H]1CC[C@@H]2CCC[C@H](NC(=O)c3cc4cc(C(F)P(=O)(O)O)ccc4s3)C(=O)N21` (single isomer, unassigned) [Compound 738], the IC50 is below 0.1 µM in test [1] and 0.3 to 3 µM in test [2].
